The values that follow come from US20140199380A1, “PHARMACEUTICAL COMPOSITION COMPRISING AN ALGAE ADAPTED TO INCREASE THE EFFICACY OF AN ENZYMATIC INHIBITOR” (priority 2010, published 2014).

Molecules are shown by their SMILES.

For series [1] the following is noted: tadalafil as normally administered, typical value; cited from earlier work.
Series [2] can be described thus: Plasma concentration of Tadalafil after a single dose (pharmacokinetics, FIG. 1). Particulars: male, human, in vivo, 20 mg.
Experimental: In both cases, a single dose of a pharmaceutical composition equivalent to 20 mg of tadalafil was administered to a test population of otherwise healthy subjects suffering from ED and the plasma concentration of Tadalafil was measured at intervals following the administration.

The term half-life denotes the time in which the quantity being followed falls by half. For the compound `CN1CC(=O)N2[C@H](c3ccc4c(c3)OCO4)c3[nH]c4ccccc4c3C[C@@H]2C1=O` [Tadalafil, (6R,12aR)-6-(1,3-benzodioxol-5-yl)-2,3,6,7,12,12a-hexahydro-2-methylpyrazino[1′,2′:1,6]pyrido[3,4-b]indole-1,4-dione], in series [1], the “Half-life in the body” value is 17.5 h. Besides, the half-life in series [2] was 1050 min.
